Test results taken from patent US7595395B2, “Gabaergic agents to treat memory deficits” (priority 2005, dated 2009).

Assays:
[1] = target: GABAA/α1 receptors (Homo sapiens, UniProt P14867+P18507); details: Huang et al. 2000, WO 03/082832A2; cited from earlier work
[2] = target: GABAA/α2 receptors (Homo sapiens, UniProt P18507+P47869); details: Huang et al. 2000, WO 03/082832A2; cited from earlier work
[3] = target: GABAA/α3 receptors (Homo sapiens, UniProt P18507+P34903); details: Huang et al. 2000, WO 03/082832A2; cited from earlier work
Sequence of GABAA/α3 receptors (P34903 29-492, one chain of several): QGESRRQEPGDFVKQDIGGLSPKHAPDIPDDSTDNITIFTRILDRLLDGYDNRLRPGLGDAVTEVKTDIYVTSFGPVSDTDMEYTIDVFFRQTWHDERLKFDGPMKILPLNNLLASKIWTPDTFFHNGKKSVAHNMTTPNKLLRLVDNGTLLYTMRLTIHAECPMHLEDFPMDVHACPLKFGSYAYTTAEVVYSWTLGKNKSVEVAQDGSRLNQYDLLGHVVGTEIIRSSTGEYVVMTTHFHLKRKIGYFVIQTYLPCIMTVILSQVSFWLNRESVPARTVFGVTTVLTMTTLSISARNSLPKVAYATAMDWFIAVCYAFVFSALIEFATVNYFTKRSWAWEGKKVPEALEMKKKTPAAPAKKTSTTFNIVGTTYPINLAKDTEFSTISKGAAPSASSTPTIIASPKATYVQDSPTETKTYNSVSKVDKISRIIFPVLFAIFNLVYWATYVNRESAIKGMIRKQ
Sequence of GABAA/α3 receptors (P28472 26-473 partner, one chain of several): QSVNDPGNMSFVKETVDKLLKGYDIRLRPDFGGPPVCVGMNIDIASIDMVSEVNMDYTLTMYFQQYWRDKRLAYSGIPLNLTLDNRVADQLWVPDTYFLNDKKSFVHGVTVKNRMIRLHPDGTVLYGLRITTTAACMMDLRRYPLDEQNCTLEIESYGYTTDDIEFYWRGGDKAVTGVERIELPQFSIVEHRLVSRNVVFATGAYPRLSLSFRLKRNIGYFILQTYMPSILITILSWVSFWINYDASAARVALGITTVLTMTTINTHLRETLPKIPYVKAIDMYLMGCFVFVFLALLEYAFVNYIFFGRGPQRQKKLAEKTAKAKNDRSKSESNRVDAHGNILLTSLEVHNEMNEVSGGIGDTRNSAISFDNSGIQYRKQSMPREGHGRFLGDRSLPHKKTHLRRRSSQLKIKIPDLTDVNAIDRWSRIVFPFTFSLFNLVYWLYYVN

[4] = target: GABAA/α5 receptors (Homo sapiens, UniProt P18507+P31644); details: Huang et al. 2000, WO 03/082832A2; cited from earlier work
Sequence of GABAA/α5 receptors (P28472 26-473 partner, one chain of several): as above

[5] = test system: C57B1/6 mice; details: DeLorey et al.; cited from earlier work
[6] = test system: αxβ3γ2 (α = 1-6) BzR/GABA(A) subtypes; assay: Binding across the BzR/GABA(A) subtypes (subtype selectivity in words); parameters: species or system human and rat
Procedure: The binding affinity of XLi093 (8) in vitro was determined on α1-6β3γ2 LTK cells and is illustrated in the Scheme as shown in FIG. 2
The affinity of all ligands at the 6 major recombinant GABAA/BzR subtypes was measured by competition for [^3H]Ro15-1788 binding to HEK-T cells expressing both human and rat GABAA/Bz receptors of composition α1β2γ2 (α1), α2β2γ2 (α2), α3β2γ2 (α3), α4β2γ2 (α4), α5β2γ2 (α5) and α6β2γ2 (α6). It is well known that the β2 and β3 subunits can be interchanged with no effect on Bz ligand affinity or efficacy. […] These studies are similar to those performed in the laboratory of Bryan Roth who has already expressed the receptors employing the work of Kucken et. al. and Gray et. al.
In brief, for membrane preparations, the cells were scraped on to the ice and diluted into 5 mL of phosphate buffered saline (pH=7.40) and cells pelleted by centrifugation for 5 min. at 4° C. The pellet was resuspended in 1 mL of 50 mM Tris-acetate buffer (pH 7.4) and centrifuged at 18,000 g for 20 min. […] The membranes were harvested in polyethyleneimine-pretreated Whatman GF/C filters and after drying and addition of scintillation cocktail, counted in a scintillation counter. […]

[7] = test system: GABAA receptor subtypes (alpha 1 to alpha 6 with beta 3 and gamma 2); assay: Direct triggering of chloride currents in oocytes, all tested subtypes; assay type: cell-based; details: up to a concentration of 1 nM, no GABA
[8] = test system: C57BL/6J mice; assay: Titrating delayed matching-to-position schedule; assay type: in vivo
Procedure: In regard to cognition, the effect of systemic administration of subtype selective agents on short term memory was determined in white Carneau pigeons. Administration of drug was intramuscularly and the titrating matching-to-sample schedule of reinforcement was used. […] In addition, C57BL/6J mice were used to look at the mean delay achieved in the titrating delayed matching-to-position schedule (doses, ip).

[9] = Crossing of the blood brain barrier; details: in vivo
[10] = target: α1β3γ2 GABAA receptor (Rattus norvegicus, UniProt P18508+P62813); assay: Two-electrode voltage clamp in Xenopus oocytes, α1β3γ2; details: α1β3γ2
Sequence of α1β3γ2 GABAA receptor (P62813 28-455): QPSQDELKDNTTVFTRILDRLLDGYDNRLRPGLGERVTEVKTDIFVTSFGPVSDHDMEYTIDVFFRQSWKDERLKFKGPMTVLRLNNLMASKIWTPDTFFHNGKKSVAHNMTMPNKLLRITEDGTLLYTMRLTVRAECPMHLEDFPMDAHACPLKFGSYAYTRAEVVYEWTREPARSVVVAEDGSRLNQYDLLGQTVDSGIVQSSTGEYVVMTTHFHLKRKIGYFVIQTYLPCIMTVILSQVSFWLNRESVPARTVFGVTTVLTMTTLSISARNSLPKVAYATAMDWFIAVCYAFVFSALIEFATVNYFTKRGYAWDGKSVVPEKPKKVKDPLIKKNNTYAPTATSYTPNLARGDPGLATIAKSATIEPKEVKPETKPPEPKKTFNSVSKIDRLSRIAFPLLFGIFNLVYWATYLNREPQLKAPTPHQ
Sequence of α1β3γ2 GABAA receptor (P63079 26-473 partner): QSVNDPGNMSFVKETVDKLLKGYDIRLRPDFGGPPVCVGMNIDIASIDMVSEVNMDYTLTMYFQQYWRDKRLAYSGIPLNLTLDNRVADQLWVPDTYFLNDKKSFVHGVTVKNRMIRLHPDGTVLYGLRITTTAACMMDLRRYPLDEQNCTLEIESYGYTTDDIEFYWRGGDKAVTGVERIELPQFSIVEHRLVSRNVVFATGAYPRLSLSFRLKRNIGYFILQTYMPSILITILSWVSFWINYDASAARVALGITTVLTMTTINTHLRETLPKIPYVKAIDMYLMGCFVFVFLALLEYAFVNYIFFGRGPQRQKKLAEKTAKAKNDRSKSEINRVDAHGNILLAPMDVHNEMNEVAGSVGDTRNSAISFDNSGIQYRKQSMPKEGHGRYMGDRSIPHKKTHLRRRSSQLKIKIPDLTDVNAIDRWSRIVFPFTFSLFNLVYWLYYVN
Sequence of α1β3γ2 GABAA receptor (P18508 39-466): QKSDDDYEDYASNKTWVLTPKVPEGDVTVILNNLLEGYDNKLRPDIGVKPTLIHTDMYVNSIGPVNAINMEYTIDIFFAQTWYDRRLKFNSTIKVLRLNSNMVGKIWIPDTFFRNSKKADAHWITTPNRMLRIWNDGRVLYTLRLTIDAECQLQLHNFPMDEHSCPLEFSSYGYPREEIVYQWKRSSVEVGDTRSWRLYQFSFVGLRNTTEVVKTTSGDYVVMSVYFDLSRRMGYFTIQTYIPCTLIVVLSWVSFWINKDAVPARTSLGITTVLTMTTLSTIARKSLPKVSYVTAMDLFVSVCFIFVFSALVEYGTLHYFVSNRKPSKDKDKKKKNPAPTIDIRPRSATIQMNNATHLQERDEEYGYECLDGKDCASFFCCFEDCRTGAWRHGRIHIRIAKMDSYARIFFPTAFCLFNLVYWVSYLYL

[11] = target: α2β3γ2 GABAA receptor (Rattus norvegicus, UniProt P18508+P23576); assay: Two-electrode voltage clamp in Xenopus oocytes, α2β3γ2; details: α2β3γ2
Sequence of α2β3γ2 GABAA receptor (P23576 29-451): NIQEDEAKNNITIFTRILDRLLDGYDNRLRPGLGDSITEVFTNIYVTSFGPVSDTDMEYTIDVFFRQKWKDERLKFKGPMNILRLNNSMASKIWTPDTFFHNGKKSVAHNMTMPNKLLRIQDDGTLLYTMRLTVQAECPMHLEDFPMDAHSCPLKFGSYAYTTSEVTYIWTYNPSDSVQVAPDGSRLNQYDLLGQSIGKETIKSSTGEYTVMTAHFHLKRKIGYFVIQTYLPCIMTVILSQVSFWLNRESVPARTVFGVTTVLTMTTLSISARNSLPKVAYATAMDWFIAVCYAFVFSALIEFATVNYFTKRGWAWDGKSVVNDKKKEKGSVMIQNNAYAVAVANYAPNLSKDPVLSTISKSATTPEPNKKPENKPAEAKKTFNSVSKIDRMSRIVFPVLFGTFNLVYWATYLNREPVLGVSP
Sequence of α2β3γ2 GABAA receptor (P63079 26-473 partner): as the sequence (P63079 26-473 partner) above
Sequence of α2β3γ2 GABAA receptor (P18508 39-466): as the sequence (P18508 39-466) above

[12] = target: α3β3γ2 GABAA receptor (Rattus norvegicus, UniProt P18508+P20236); assay: Two-electrode voltage clamp in Xenopus oocytes, α3β3γ2; details: α3β3γ2
Sequence of α3β3γ2 GABAA receptor (P20236 29-493): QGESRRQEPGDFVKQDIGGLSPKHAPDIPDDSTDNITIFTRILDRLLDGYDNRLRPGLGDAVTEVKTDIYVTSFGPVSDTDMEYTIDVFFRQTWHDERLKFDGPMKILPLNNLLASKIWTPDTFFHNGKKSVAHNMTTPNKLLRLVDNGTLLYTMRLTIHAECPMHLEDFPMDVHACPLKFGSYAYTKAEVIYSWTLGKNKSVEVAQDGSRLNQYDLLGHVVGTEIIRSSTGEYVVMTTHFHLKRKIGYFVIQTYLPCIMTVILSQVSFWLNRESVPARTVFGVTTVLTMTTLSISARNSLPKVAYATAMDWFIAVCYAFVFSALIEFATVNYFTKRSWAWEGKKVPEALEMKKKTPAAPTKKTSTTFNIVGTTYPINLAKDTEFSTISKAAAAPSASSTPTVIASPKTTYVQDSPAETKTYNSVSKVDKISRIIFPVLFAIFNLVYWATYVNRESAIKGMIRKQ
Sequence of α3β3γ2 GABAA receptor (P63079 26-473 partner): as the sequence (P63079 26-473 partner) above
Sequence of α3β3γ2 GABAA receptor (P18508 39-466): as the sequence (P18508 39-466) above

[13] = target: α5β3γ2 GABAA receptor (Rattus norvegicus, UniProt P18508+P19969); assay: Two-electrode voltage clamp in Xenopus oocytes, α5β3γ2
Sequence of α5β3γ2 GABAA receptor (P19969 26-464): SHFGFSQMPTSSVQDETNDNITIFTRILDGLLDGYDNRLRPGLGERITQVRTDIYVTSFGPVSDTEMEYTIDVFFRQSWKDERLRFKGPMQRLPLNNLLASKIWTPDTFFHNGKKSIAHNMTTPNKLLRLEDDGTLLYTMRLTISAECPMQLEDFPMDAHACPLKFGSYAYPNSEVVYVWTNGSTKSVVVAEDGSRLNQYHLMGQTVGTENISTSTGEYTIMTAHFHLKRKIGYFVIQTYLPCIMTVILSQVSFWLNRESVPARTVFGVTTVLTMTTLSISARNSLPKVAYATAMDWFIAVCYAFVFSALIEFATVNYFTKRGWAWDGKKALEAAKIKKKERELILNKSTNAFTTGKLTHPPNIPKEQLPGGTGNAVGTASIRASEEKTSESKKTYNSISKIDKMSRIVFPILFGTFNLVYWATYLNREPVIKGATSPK
Sequence of α5β3γ2 GABAA receptor (P63079 26-473 partner): as the sequence (P63079 26-473 partner) above
Sequence of α5β3γ2 GABAA receptor (P18508 39-466): as the sequence (P18508 39-466) above

[14] = target: T1, α5β3γ2 benzodiazepine receptor GABA(A) isoform (UniProt P18507+P31644); assay: Radioligand competition binding, α5β3γ2 BzR/GABA(A) isoform; parameters: rows headed: Ki at α5β3γ2 subtypes; other: text; α1-6β3γ2 LTK cells; species or system human and rat; details: read-out: Ki at α5β3γ2 subtypes; α1-6β3γ2 LTK cells
T1 sequence (P18507 1-475): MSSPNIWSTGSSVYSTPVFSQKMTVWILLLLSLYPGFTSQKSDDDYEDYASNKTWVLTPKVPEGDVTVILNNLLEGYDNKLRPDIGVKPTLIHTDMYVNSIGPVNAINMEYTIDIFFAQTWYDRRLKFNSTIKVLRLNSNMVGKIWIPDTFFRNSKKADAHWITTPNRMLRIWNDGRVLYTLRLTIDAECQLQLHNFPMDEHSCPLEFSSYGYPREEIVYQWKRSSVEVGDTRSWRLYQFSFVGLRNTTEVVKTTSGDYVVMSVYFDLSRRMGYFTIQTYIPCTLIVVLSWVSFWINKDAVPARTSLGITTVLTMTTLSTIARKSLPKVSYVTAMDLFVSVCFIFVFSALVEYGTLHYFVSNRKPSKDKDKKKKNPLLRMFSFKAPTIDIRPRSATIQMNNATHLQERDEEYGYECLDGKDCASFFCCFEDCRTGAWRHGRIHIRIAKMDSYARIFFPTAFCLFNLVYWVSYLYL
T1 sequence (P31644 1-462): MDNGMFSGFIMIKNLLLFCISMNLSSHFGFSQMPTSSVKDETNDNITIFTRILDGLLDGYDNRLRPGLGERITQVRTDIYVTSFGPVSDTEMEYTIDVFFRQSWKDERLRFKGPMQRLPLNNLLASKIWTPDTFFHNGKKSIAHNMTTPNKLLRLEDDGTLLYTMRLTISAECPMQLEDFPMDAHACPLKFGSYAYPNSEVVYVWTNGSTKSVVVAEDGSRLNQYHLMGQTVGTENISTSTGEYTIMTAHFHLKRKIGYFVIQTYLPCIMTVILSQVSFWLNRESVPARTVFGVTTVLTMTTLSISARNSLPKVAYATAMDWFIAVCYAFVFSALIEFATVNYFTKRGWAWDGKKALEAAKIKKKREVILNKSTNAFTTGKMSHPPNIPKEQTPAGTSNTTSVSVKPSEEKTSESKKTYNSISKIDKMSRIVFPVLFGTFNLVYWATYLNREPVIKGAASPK

Sequence of GABAA/α2 receptors (P47869 29-451, one chain of several): as the sequence (P23576 29-451) above, with S88L, P174A, G330A counted along it
Sequence of GABAA/α2 receptors (P28472 26-473 partner, one chain of several): as the sequence (P28472 26-473 partner, one chain of several) above
Sequence of GABAA/α1 receptors (P14867 28-456, one chain of several): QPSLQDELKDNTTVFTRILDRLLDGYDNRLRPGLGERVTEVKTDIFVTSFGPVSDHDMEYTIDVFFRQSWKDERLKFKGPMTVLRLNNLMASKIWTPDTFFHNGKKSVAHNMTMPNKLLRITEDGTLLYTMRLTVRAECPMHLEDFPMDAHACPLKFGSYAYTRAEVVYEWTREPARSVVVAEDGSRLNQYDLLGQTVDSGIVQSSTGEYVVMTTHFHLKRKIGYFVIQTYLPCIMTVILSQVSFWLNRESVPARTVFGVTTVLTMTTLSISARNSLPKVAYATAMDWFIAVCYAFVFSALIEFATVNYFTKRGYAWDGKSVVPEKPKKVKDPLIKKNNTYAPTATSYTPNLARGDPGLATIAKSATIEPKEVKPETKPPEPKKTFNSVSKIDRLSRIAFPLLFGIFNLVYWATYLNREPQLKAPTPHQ
Sequence of GABAA/α1 receptors (P28472 26-473 partner, one chain of several): as the sequence (P28472 26-473 partner, one chain of several) above

C#Cc1ccc2c(c1)C(c1ccccc1)=NCC(=O)N2C [QH-ii-066]
Ki [1]: > 70 nM | Ki [2]: < 50 nM | Ki [3]: < 50 nM | Ki [4]: < 10 nM

CCOC(=O)c1ncn2c1CN(C)C(=O)c1cc(CC)ccc1-2 [RY10, Ethyl 8-Ethyl-5,6-dihydro-5-methyl-6-oxo-4H-imidazo[1,5a][1,4]benzodiazepine-3-carboxylate]
reversal of scopolamine-induced memory impairment (in words) [5]: potently reversed scopolamine-induced memory impairment

C#Cc1ccc2c(c1)C(=O)N(C)Cc1c(C(=O)OCCCOC(=O)c3ncn4c3CN(C)C(=O)c3cc(C#C)ccc3-4)ncn1-2 [XLi-093, 1,3-Bis(8-acetyleno-5,6-dihydro-5-methyl-6-oxo-4H-imidazo[1,5a][1,4]-benzodiaze-pine-3-carboxy)propyl diester]
affinity at other BzR/GABA(A) subtypes than α5 (in words) [6]: little or no affinity | triggering of chloride currents (in words) [7]: did not trigger chloride currents | performance / mean delay under titrating delayed matching to position schedule (in words) [8]: does indeed enhance performance | crossing of the blood brain barrier (in words) [9]: does cross the blood brain barrier | modulation of GABA induced chloride flux (in words) ([10]; 1 uM): did not modulate | influence on diazepam stimulation of GABA-induced current (in words) ([10]; 1 μM): only marginally influenced | modulation of GABA induced chloride flux (in words) ([11]; 1 uM): did not modulate | influence on diazepam stimulation of GABA-induced current (in words) ([11]; 1 μM): only marginally influenced | modulation of GABA induced chloride flux (in words) ([12]; 1 uM): did not modulate | influence on diazepam stimulation of GABA-induced current (in words) ([12]; 1 μM): only marginally influenced | modulation of GABA induced chloride flux (in words) ([13]; 1 uM, α5β3γ2): very slightly inhibited currents | influence on diazepam stimulation of GABA-induced current (in words) ([13]; 1 μM, α5β3γ2): shifted the diazepam dose response curve to the right | inhibition of diazepam-stimulated currents (in words) ([13]; α5β3γ2 receptors): dose dependently and completely inhibit | Ki [14]: 15 nM
